# Measured values from PubChem BioAssay (NCI).
#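 Cells were grown in 96-well plates and exposed to each compound for 48 hours at five concentrations; endpoints were interpolated linearly between bracketing concentrations, or set to the highest concentration if not reached. GI50 marks 50% less growth. At the TGI there is no net growth.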
# Experiments:
# Assay in all cases: DTP human tumour cell line panel, 48 h
# MDA-N = tested on: MDA-N
# OVCAR-4 ovarian = tested on: OVCAR-4 ovarian
# DU-145 prostate = tested on: DU-145 prostate
# SK-MEL-2 melanoma = tested on: SK-MEL-2 melanoma
# CCRF-CEM leukemia = tested on: CCRF-CEM leukemia
# SR leukemia = tested on: SR leukemia
# RXF 393 renal = tested on: RXF 393 renal
# HL-60(TB) leukemia = tested on: HL-60(TB) leukemia
# HS 578T breast = tested on: HS 578T breast
# SN12C renal = tested on: SN12C renal
SMILES,TGI (MDA-N) [µM],TGI (OVCAR-4 ovarian) [µM],TGI (DU-145 prostate) [µM],TGI (SK-MEL-2 melanoma) [µM],TGI (CCRF-CEM leukemia) [µM],TGI (SR leukemia) [µM],TGI (RXF 393 renal) [µM],TGI (HL-60(TB) leukemia) [µM],TGI (HS 578T breast) [µM],TGI (SN12C renal) [µM],GI50 (OVCAR-4 ovarian) [µM],GI50 (DU-145 prostate) [µM],GI50 (SK-MEL-2 melanoma) [µM],GI50 (CCRF-CEM leukemia) [µM],GI50 (SR leukemia) [µM],GI50 (RXF 393 renal) [µM],GI50 (HL-60(TB) leukemia) [µM],GI50 (HS 578T breast) [µM],GI50 (SN12C renal) [µM]
CC(NNC(=O)c1ccncc1)c1cccc(C(F)(F)F)c1 (stereo unspecified),> 100,> 100,> 100,> 100,> 100,> 100,> 100,> 100,> 100,> 100,–,–,–,–,–,–,–,–,–
CCOC(=O)c1nc2cc(Cl)ccc2[nH]c1=O,> 100,> 100,> 100,> 100,> 100,> 100,> 100,> 100,> 100,> 100,–,–,–,–,–,–,–,–,–
CCNC(=S)NNC(=O)c1ccccc1Nc1ccccc1C(=O)NNC(=S)NCC,> 100,> 100,> 100,> 100,> 100,> 100,–,> 100,> 100,> 100,–,–,–,–,–,–,–,–,–
CNC(=O)CNC(=O)N(C[C@@H]1CCCN1C(=O)[C@H](CC(C)C)NC(=O)OC(C)(C)C)C(C)C,> 100,> 100,> 100,> 100,> 100,> 100,> 100,> 100,> 100,> 100,–,–,–,–,–,–,–,–,–
COC(=O)c1c2c(cc3c1CC1(Cc4ccccc4C1)C3)CCC2,33.9,> 100,> 100,–,40.9,54.2,52.9,69.5,79.7,95.8,–,–,–,–,–,–,–,–,–
C=C1CCOC2(C(O)C(C)(O)CO)NC(=O)C1(O)NC2=O (stereo unspecified),> 100,> 100,> 100,> 100,> 100,> 100,> 100,> 100,> 100,> 100,–,–,–,–,–,–,–,–,–
Cc1nc2ccc(NC3OCC(O)C(O)C3O)cc2c(=O)n1-c1ccccc1 (stereo unspecified),> 100,> 100,> 100,> 100,–,> 100,> 100,> 100,> 100,> 100,–,–,–,–,–,–,–,–,–
C=CCOC(=O)Cn1ccc(=O)[nH]c1=O,> 100,–,> 100,> 100,> 100,> 100,–,> 100,> 100,> 100,–,–,–,–,–,–,–,–,–
CN(C)CC1CCC/C(=C\c2ccc(OC(=O)/C=C/c3ccc(Cl)cc3)cc2)C1=O (stereo unspecified),18.6,35.9,25.5,25.1,3.39,2.87,4.08,3.22,24.6,12.8,–,–,–,–,–,–,–,–,–
CSc1ncc2c(n1)-c1ccccc1OC2,> 100,> 100,> 100,> 100,> 100,> 100,> 100,> 100,> 100,> 100,–,–,–,–,–,–,–,–,–
O=C(O)c1nn(-c2ccccc2)nc1-c1nn(-c2ccccc2)nc1C(=O)O,> 100,> 100,> 100,> 100,> 100,> 100,> 100,> 100,> 100,> 100,–,–,–,–,–,–,–,–,–
CCCN(CCC)C(=O)c1c(N2CCN(C)CC2)c2cccnc2n2c(C)cnc12,> 100,> 100,> 100,> 100,> 100,> 100,> 100,> 100,> 100,> 100,–,–,–,–,–,–,–,–,–
CC(=O)NC(C)(C)C1CCC(C)CC1 (stereo unspecified),> 100,> 100,> 100,–,> 100,> 100,> 100,> 100,> 100,> 100,–,–,–,–,–,–,–,–,–
COc1ccc(N2C(=O)/C(=C/c3ccc(N(CCC#N)CCC#N)cc3)N=C2c2ccccc2)cc1,> 100,> 100,> 100,> 100,–,> 100,> 100,> 100,> 100,> 100,–,–,–,–,–,–,–,–,–
COC(=O)C12Oc3ccc(-c4ccc5c(c4O)C(O)=C4C(=O)CC(C)C(O)C4(C(=O)OC)O5)c(O)c3C(O)=C1C(=O)CC(C)C2O (stereo unspecified),> 100,> 100,> 66,1.02,0.0848,0.224,0.935,0.319,3.86,> 100,–,–,–,–,–,–,–,–,–
C=C(C)CCC1C=[N+]([O-])OC(C)(C)C1(C)C (stereo unspecified),> 100,–,> 100,–,> 100,> 100,> 100,73.8,> 100,> 100,–,–,–,–,–,–,–,–,–
COc1ccc2[nH]c3c(c2c1)CC(=O)N1CCC[C@H](C1)CC31OCCCO1,> 100,> 100,> 100,> 100,> 100,> 100,> 100,–,> 100,> 100,–,–,–,–,–,–,–,–,–
CCOS(=O)(=O)c1ccc(-c2c3nc(c(-c4ccc(S(=O)(=O)OCC)cc4)c4ccc([nH]4)c(-c4ccc(S(=O)(=O)OCC)cc4)c4nc(c(-c5ccc(S(=O)(=O)OCC)cc5)c5ccc2[nH]5)C=C4)C=C3)cc1,> 31.6,> 31.6,> 31.6,> 31.6,> 31.6,> 31.6,> 31.6,> 31.6,> 31.6,> 31.6,–,–,–,–,–,–,–,–,–
COc1ccc(-c2nnc3n(C)c4ccccc4n3c2=O)cc1,> 100,> 100,> 100,> 100,> 100,> 100,82.9,> 100,> 100,> 100,–,–,–,–,–,–,–,–,–
COc1ccc(-c2oc3cc(O)c(OC)c(O)c3c(=O)c2O)cc1,> 100,> 100,> 24.9,> 100,14.8,20.8,50.2,9.19,> 92.7,> 75.2,–,–,–,–,–,–,–,–,–
COc1ccc2c(c1)/c(=C/C#N)c1c3ccccc3[n+](C)n21,40.9,22.9,8.59,36.1,13.1,> 100,50.1,> 48.3,50.4,47.4,–,–,–,–,–,–,–,–,–
Cc1cc(O)c2c(c1)C(C1c3cccc(O)c3C(=O)c3c(O)cc(C)cc31)c1cccc(O)c1C2=O (stereo unspecified),20.8,5.1,18.6,0.692,10.1,3.32,0.861,6.72,33.3,3.23,–,–,–,–,–,–,–,–,–
COc1ccc([I+]c2ccc(OC)cc2)cc1,> 38.3,> 100,> 100,> 100,> 100,> 100,> 100,> 100,> 100,> 100,3.33,60.4,43.9,4.98,3.81,27.3,6.4,18.8,29.3
CC#CCCCC1(C)CCNC1=S (stereo unspecified),> 10,> 10,> 10,> 10,> 10,> 10,> 10,> 10,> 10,> 10,–,–,–,–,–,–,–,–,–
C/C(=N\NC(N)=S)c1nc2ncccc2[nH]1,> 100,> 100,> 100,> 100,> 100,> 100,> 100,> 79.1,> 100,> 100,–,–,–,–,–,–,–,–,–
Cc1cc(C)n(-c2nc(C)c(CCO)c(=O)[nH]2)n1,> 100,> 100,> 100,–,> 100,> 100,> 100,> 100,> 100,> 100,–,–,–,–,–,–,–,–,–
NC(=S)N1N=C2c3ccccc3CCC[C@H]2[C@@H]1c1ccccc1,0.279,23.2,9.27,5.94,24.3,> 32.9,6.68,–,17.4,19.7,–,–,–,–,–,–,–,–,–
COc1cc(/C=C/C(=N\NC(N)=S)c2sc(NNC(C)=O)nc2C)ccc1O,> 100,> 100,> 100,> 100,> 100,> 100,> 100,> 100,> 100,> 100,–,–,–,–,–,–,–,–,–
CCOC(=O)NN(C(=O)OCC)C(C(=O)c1ccccc1)N(NC(=O)OCC)C(=O)OCC,> 100,> 100,> 100,–,> 100,> 100,> 100,> 100,> 100,> 100,–,–,–,–,–,–,–,–,–
